This note sets out measurements from patent US12221439B2, “Tetrahydropyridopyrimidine derivatives as AhR modulators” (JAGUAHR THERAPEUTICS PTE LTD, priority 2018, dated 2025).

For one data set, the target named is AhR (Homo sapiens (Human), UniProt P35869). The experiment in a line: AhR antagonism in U937 cells (Promega P450-Glo assay). The class given is cell-based. The note with it: inhibition of agonist (KYNA) response, CYP1A1 activity readout (Luciferin-CEE), 24 hrs, arithmetic mean of pIC50. Here is the method:
Examples were tested in selected biological assays two or more times. Data are reported as the arithmetic mean of the pIC50 (−log10IC50) values, where IC50 is defined as the concentration of compound producing a 50% inhibition of the agonist (KYNA) response.
In Vitro Assay 1: AhR Antagonism in U937 Cells (Promega P450-Glo™ Assay)
AhR antagonism was assessed in U937 cells (myeloid lineage cell line derived from a human histiocytic lymphoma).). Ligand binds the AhR in the cytoplasm, and the AhR-ligand complex translocates to the nucleus and forms a heterodimer with AhR nuclear translocator (Arnt). This complex binds the xenobiotic response element (XRE) in the 5′ upstream region of the CYP1A1 promoter, enhancing CYP1A1 expression. CYP1A1 activity is subsequently determined by assessing the conversion of Luciferin-CEE to luciferin, which in turn reacts with luciferase to produce light. The amount of light produced is directly proportional to cytochrome P450 activity. U937 cells in Ultraculture serum free media (Lonza) were plated at 100,000 cells per well in a round bottom 96 well tissue culture plate. Seven concentrations of test compound (final [DMSO] 1%) were added and incubated for 10 minutes before the addition of […] KYNA. The plates were then placed in an incubator at 37° C., >85% humidity, 5% CO2 for 24 hrs. After aspiration of the supernatant the CYP1A1 substrate Luciferin-CEE ([Final] 83 μM) was added and incubated for 3 hrs before the reaction was stopped by adding luciferin detection reagent and luminescence was read after 20 minutes.

For a further data set, the target named is CYP1A1 (Homo sapiens (Human), UniProt P04798). The experiment in a line: CYP1A1 inhibition assay (Promega P450-Glo, Cypex bactosomes). The class given is biochemical. The note with it: direct CYP1A1 inhibition, Luciferin-CEE 30 μM, NADPH, 37° C., arithmetic mean of pIC50. As to the method: In Vitro Assay 22: […] Inhibition Assay
Chain of CYP1A1 (P04798 whole entry): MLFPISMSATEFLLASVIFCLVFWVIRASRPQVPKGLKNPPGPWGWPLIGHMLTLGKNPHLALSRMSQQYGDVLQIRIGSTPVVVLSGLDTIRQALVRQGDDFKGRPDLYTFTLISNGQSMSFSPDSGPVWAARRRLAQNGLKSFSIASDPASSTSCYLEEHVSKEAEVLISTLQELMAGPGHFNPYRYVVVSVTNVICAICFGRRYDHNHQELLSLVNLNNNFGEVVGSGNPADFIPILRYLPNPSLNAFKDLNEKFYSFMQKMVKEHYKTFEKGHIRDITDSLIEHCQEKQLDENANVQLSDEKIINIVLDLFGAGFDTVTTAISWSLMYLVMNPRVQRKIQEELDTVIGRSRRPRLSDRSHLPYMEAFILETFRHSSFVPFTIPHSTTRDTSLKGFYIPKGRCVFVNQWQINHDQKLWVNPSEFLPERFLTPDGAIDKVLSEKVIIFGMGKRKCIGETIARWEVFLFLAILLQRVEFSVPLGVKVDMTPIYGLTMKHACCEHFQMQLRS
The direct CYP1A1 inhibitory activity of test compounds was also assessed using the Promega P450-Glo™ assay system. Seven concentrations of test compound were added to a ½ area white 96 well plate. Cypex […]. bactosomes ([final] 0.5 pmol) and CYPA substrate Luciferin-CEE ([final] 30 μM) were prepared in 0.1M potassium phosphate buffer and incubated with test compounds at 37° C. for 5 minutes. 0.2m NADPH was then added to the plates and incubated at 37° C., for 10 minutes. The reaction was stopped by adding luciferin detection reagent and luminescence was read after 20 minutes.

Chain of AhR (P35869 11-848): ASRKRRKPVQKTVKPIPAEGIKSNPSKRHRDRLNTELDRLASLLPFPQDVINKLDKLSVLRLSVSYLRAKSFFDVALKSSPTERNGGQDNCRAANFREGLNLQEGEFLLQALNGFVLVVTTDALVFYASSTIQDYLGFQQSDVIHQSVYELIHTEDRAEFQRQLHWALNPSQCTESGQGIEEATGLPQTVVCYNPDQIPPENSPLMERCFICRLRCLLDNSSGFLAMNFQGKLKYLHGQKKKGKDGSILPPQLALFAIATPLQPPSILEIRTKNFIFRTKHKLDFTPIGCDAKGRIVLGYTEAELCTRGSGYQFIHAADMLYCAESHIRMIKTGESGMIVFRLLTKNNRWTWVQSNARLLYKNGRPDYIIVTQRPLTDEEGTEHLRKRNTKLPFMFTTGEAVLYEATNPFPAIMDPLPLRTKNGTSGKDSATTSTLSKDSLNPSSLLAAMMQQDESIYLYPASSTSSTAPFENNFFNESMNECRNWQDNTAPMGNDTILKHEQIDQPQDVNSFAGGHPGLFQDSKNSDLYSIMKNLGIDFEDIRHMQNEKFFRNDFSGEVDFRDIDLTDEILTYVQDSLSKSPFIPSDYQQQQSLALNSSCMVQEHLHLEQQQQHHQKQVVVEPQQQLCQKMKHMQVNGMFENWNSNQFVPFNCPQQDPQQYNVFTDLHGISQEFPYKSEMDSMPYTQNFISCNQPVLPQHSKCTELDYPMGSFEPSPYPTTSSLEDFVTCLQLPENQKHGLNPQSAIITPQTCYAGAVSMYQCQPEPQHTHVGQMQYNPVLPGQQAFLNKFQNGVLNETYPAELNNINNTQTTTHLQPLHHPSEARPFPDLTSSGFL

The IC50 is the concentration at which inhibition is half-maximal. A higher IC50 goes with a need for much substance. `CC(=O)N1CCc2c(nc(-c3cncc(F)c3)nc2NCCc2c[nH]c3ccccc23)C1` [Example 1, 1-(4-((2-(1H-indol-3-yl)ethyl)amino)-2-(5-fluoropyridin-3-yl)-5,8-dihydropyrido [3,4-d]pyrimidin-7(6H)-yl)ethan-1-one] showed a concentration for half-maximal inhibition (IC50) on AhR of 1.58 nM. Also, the “cyp1A1 pIC50” value on CYP1A1 is given as 6.00.
Compound `CS(=O)(=O)N1CCc2c(nc(-c3cncc(F)c3)nc2NCCc2c[nH]c3ccccc23)C1` [Example 2, N-(2-(1H-indol-3-yl)ethyl)-2-(5-fluoropyridin-3-yl)-7-(methylsulfonyl)-5,6,7,8-tetrahydropyrido [3,4-d]pyrimidin-4-amine] had an IC50 on AhR of 1.26 nM. Further, the “cyp1A1 pIC50” value at CYP1A1 worked out at 6.20.
For `N#CCN1CCc2c(nc(-c3cncc(F)c3)nc2NCCc2c[nH]c3ccccc23)C1` [Example 4, 2-(4-((2-(1H-indol-3-yl)ethyl)amino)-2-(5-fluoropyridin-3-yl)-5,8-dihydropyrido[3,4-d]pyrimidin-7(6H)-yl)acetonitrile], the concentration for half-maximal inhibition (IC50) was 6.31 nM on AhR and 794 nM against CYP1A1.
As to `CC(C)N1CCc2c(nc(-c3cncc(F)c3)nc2NCCc2c[nH]c3ccccc23)C1` [Example 5, N-(2-(1H-indol-3-yl)ethyl)-2-(5-fluoropyridin-3-yl)-7-isopropyl-5,6,7,8-tetrahydropyrido[3,4-d]pyrimidin-4-amine], on AhR, the IC50 is 10 nM. Moreover, on CYP1A1, the “cyp1A1 pIC50” value was found to be 6.40.
`CN1CCc2c(nc(-c3cncc(F)c3)nc2NCCc2c[nH]c3ccccc23)C1` [Example 6, N-(2-(1H-indol-3-yl)ethyl)-2-(5-fluoropyridin-3-yl)-7-methyl-5,6,7,8-tetrahydropyrido[3,4-d]pyrimidin-4-amine] had a half-inhibitory concentration (IC50) at AhR of 5.01 nM. Moreover, the “cyp1A1 pIC50” value at CYP1A1 was 6.50.
With `c1cncc(-c2nc3c(c(NCCc4c[nH]c5ccccc45)n2)CNCC3)c1` [Example 7, N-(2-(1H-indol-3-yl)ethyl)-2-(pyridin-3-yl)-5,6,7,8-tetrahydropyrido [4,3-d]pyrimidin-4-amine], on AhR, the half-maximal inhibitory concentration (IC50) was 10 nM. At CYP1A1, the “cyp1A1 pIC50” value was 6.70.
Take `Fc1cncc(-c2nc3c(c(NCCc4c[nH]c5ccccc45)n2)CCNC3)c1` [Example 8, N-(2-(1H-indol-3-yl)ethyl)-2-(5-fluoropyridin-3-yl)-5,6,7,8-tetrahydropyrido[3,4-d]pyrimidin-4-amine]: the IC50 at AhR was 15.8 nM. The “cyp1A1 pIC50” value on CYP1A1 is given as 7.00.
Compound `c1cncc(-c2nc3c(c(NCCc4c[nH]c5ccccc45)n2)CCNC3)c1` [Example 9, N-(2-(1H-indol-3-yl)ethyl)-2-(pyridin-3-yl)-5,6,7,8-tetrahydro pyrido[3,4-d]pyrimidin-4-amine] gave an IC50 on AhR of 20 nM. Further, the “cyp1A1 pIC50” value at CYP1A1 was determined as 6.60.
In turn, `c1cncc(-c2nc3c(c(NCCc4c[nH]c5ccccc45)n2)CNC3)c1` [Example 10, N-(2-(1H-indol-3-yl)ethyl)-2-(pyridin-3-yl)-6,7-dihydro-5H-pyrrolo[3,4-d]pyrimidin-4-amine] had a concentration for half-maximal inhibition (IC50) at AhR of 12.6 nM. Moreover, at CYP1A1, the “cyp1A1 pIC50” value was 6.80.
`Fc1cncc(-c2nc3c(c(OCCc4c[nH]c5ccccc45)n2)CCNC3)c1` [Example 11, 4-(2-(1H-indol-3-yl)ethoxy)-2-(5-fluoropyridin-3-yl)-5,6,7,8-tetrahydropyrido[3,4-d]pyrimidine] gave an IC50 on AhR of 3.16 nM. The “cyp1A1 pIC50” value on CYP1A1 is 6.40.
Take `CN(C)S(=O)(=O)N1CCc2c(nc(-c3cncc(F)c3)nc2NCCc2c[nH]c3ccccc23)C1` [Example 12, 4-((2-(1H-indol-3-yl)ethyl)amino)-2-(5-fluoropyridin-3-yl)-N,N-dimethyl-5,8-dihydropyrido[3,4-d]pyrimidine-7(6H)-sulfonamide]: the concentration for half-maximal inhibition (IC50) on AhR was 1 nM. On CYP1A1, the “cyp1A1 pIC50” value is given as 6.10.
`CN(C)C(=O)N1CCc2c(nc(-c3cncc(F)c3)nc2NCCc2c[nH]c3ccccc23)C1` [Example 13, 4-((2-(1H-indol-3-yl)ethyl)amino)-2-(5-fluoropyridin-3-yl)-N,N-dimethyl-5,8-dihydropyrido[3,4-d]pyrimidine-7(6H)-carboxamide]: at AhR, the half-inhibitory concentration (IC50) was 3.16 nM. The “cyp1A1 pIC50” value at CYP1A1 is 5.70.
The corresponding values for `CNC(=O)N1CCc2c(nc(-c3cncc(F)c3)nc2NCCc2c[nH]c3ccccc23)C1` [Example 14, 4-((2-(1H-indol-3-yl)ethyl)amino)-2-(5-fluoropyridin-3-yl)-N-methyl-5,8-dihydropyrido[3,4-d]pyrimidine-7(6H)-carboxamide] are 1.26 nM and 6.10.
The corresponding values for `Cn1nccc1C(=O)N1CCc2c(nc(-c3cncc(F)c3)nc2NCCc2c[nH]c3ccccc23)C1` [Example 15, (4-((2-(1H-indol-3-yl)ethyl)amino)-2-(5-fluoropyridin-3-yl)-5,8-dihydropyrido[3,4-d]pyrimidin-7(6H)-yl)(1-methyl-1H-pyrazol-5-yl)methanone] are 2 nM and 6.00.
As to `NCC(=O)N1CCc2c(nc(-c3cncc(F)c3)nc2NCCc2c[nH]c3ccccc23)C1` [Example 16, 1-(4-((2-(1H-indol-3-yl)ethyl)amino)-2-(5-fluoropyridin-3-yl)-5,8-dihydropyrido[3,4-d]pyrimidin-7(6H)-yl)-2-aminoethan-1-one], the concentration for half-maximal inhibition (IC50) on AhR is 6.31 nM; on CYP1A1, 100 nM.
`Fc1cncc(-c2nc3c(c(NCCc4c[nH]c5ccccc45)n2)CCNCC3)c1` [Example 17a, N-(2-(1H-indol-3-yl)ethyl)-2-(5-fluoropyridin-3-yl)-6,7,8,9-tetrahydro-5H-pyrimido[4,5-d]azepin-4-amine] showed an IC50 at AhR of 25.1 nM. Moreover, the “cyp1A1 pIC50” value at CYP1A1 stood at 6.20.
Regarding `CCN1CCc2nc(-c3cncc(F)c3)nc(NCCc3c[nH]c4ccccc34)c2CC1` [Example 17b, N-(2-(1H-indol-3-yl)ethyl)-7-ethyl-2-(5-fluoropyridin-3-yl)-6,7,8,9-tetrahydro-5H-pyrimido[4,5-d]azepin-4-amine], on AhR, the half-maximal inhibitory concentration (IC50) was 15.8 nM. Moreover, the “cyp1A1 pIC50” value at CYP1A1 is 6.10.
In turn, `CC1(C)c2nc(-c3cncc(F)c3)nc(NCCc3c[nH]c4ccccc34)c2CCN1Cc1ccccc1` [Example 18a, N-(2-(1H-indol-3-yl)ethyl)-7-benzyl-2-(5-fluoropyridin-3-yl)-8,8-dimethyl-5,6,7,8-tetrahydropyrido[3,4-d]pyrimidin-4-amine] gave a half-maximal inhibitory concentration (IC50) at AhR of 5.01 nM. On CYP1A1, the “cyp1A1 pIC50” value was determined as 6.20.
On AhR, `CC1(C)NCCc2c(NCCc3c[nH]c4ccccc34)nc(-c3cncc(F)c3)nc21` [Example 18b, N-(2-(1H-indol-3-yl)ethyl)-2-(5-fluoropyridin-3-yl)-8,8-dimethyl-5,6,7,8-tetrahydropyrido[3,4-d]pyrimidin-4-amine] had an IC50 of 20 nM. In addition, the “cyp1A1 pIC50” value on CYP1A1 stood at 5.90.
On AhR, `Fc1cncc(-c2nc3c(c(NCCc4nc5ccccc5[nH]4)n2)CCNC3)c1` [Example 19, N-(2-(1H-benzo[d]imidazol-2-yl)ethyl)-2-(5-fluoropyridin-3-yl)-5,6,7,8-tetrahydropyrido[3,4-d]pyrimidin-4-amine] showed an IC50 of 3160 nM. For the same compound, on CYP1A1, the “cyp1A1 pIC50” value is 5.10.
With `Cc1cncc(-c2nc3c(c(NCCc4c[nH]c5ccccc45)n2)CCNC3)c1` [Example 20, N-(2-(1H-indol-3-yl)ethyl)-2-(5-methylpyridin-3-yl)-5,6,7,8-tetrahydropyrido[3,4-d]pyrimidin-4-amine], the half-inhibitory concentration (IC50) on AhR was 25.1 nM. Also, the “cyp1A1 pIC50” value on CYP1A1 turned out to be 6.40.
As to `Fc1cncc(-c2nc3c(c(NCCc4c[nH]c5ccccc45)n2)CNCC3)c1` [Example 21, N-(2-(1H-indol-3-yl)ethyl)-2-(5-fluoropyridin-3-yl)-5,6,7,8-tetrahydropyrido[4,3-d]pyrimidin-4-amine], the 50% inhibitory concentration (IC50) on AhR was 20 nM. For the same compound, the “cyp1A1 pIC50” value at CYP1A1 came to 6.40.
As for `Clc1cncc(-c2nc3c(c(NCCc4c[nH]c5ccccc45)n2)CCNC3)c1` [Example 22, N-(2-(1H-indol-3-yl)ethyl)-2-(5-chloropyridin-3-yl)-5,6,7,8-tetrahydropyrido[3,4-d]pyrimidin-4-amine], the values for the IC50 on AhR and against CYP1A1 were 10 nM and 316 nM, respectively.
On AhR, `N#Cc1cncc(-c2nc3c(c(NCCc4c[nH]c5ccccc45)n2)CCNC3)c1` [Example 23, 5-(4-((2-(1H-indol-3-yl)ethyl)amino)-5,6,7,8-tetrahydropyrido[3,4-d]pyrimidin-2-yl)nicotinonitrile] showed a 50% inhibitory concentration (IC50) of 10 nM. The “cyp1A1 pIC50” value at CYP1A1 is 6.70.
